In the NIST ThermoML archive (doi:10.1016/j.jct.2004.09.005):
Where “and” joins values, the source holds several entries; their conditions need not be identical. Equal values may be shown once. ± gives the expanded uncertainty stated by the source.

Assays:
[1] = Crystal; for vapor or sublimation pressure: Calculated from knudsen effusion weight loss; for Normal melting temperature: DTA
[2] = Molar enthalpy of transition or fusion; conditions: Crystal; DSC

## O=C(O)c1ccccc1Br [2-bromobenzoic acid]
[1]; 327.56 K
  vapor or sublimation pressure: 9.4e-05 ± 5e-06 kPa and 9.1e-05 ± 5e-06 kPa
[1]; 330.16 K
  vapor or sublimation pressure: 0.000127 ± 6e-06 kPa and 0.000126 ± 6e-06 kPa and 0.000125 ± 6e-06 kPa
[1]; 332.67 K
  vapor or sublimation pressure: 0.000169 ± 8e-06 kPa and 0.000174 ± 9e-06 kPa and 0.000167 ± 8e-06 kPa
[1]; 335.15 K
  vapor or sublimation pressure: 0.000227 ± 1.1e-05 kPa and 0.000223 ± 1.1e-05 kPa and 0.000224 ± 1.1e-05 kPa
[1]; 337.69 K
  vapor or sublimation pressure: 0.000297 ± 1.5e-05 kPa and 0.000299 ± 1.5e-05 kPa and 0.000296 ± 1.5e-05 kPa
[1]; 340.16 K
  vapor or sublimation pressure: 0.000402 ± 2e-05 kPa and 0.000394 ± 2e-05 kPa and 0.000392 ± 2e-05 kPa
[1]; 342.63 K
  vapor or sublimation pressure: 0.000533 ± 2.7e-05 kPa and 0.000524 ± 2.6e-05 kPa
[1]; 345.16 K
  vapor or sublimation pressure: 0.000665 ± 3.3e-05 kPa and 0.000698 ± 3.5e-05 kPa and 0.000678 ± 3.4e-05 kPa
[1]; 347.68 K
  vapor or sublimation pressure: 0.000908 ± 4.5e-05 kPa and 0.000897 ± 4.5e-05 kPa and 0.000878 ± 4.4e-05 kPa
[1]
  Normal melting temperature: 148.5 ± 0.56 °C
[2]
  Molar enthalpy of transition or fusion: 5.93 ± 0.203 kcal/mol

## O=C(O)c1ccccc1Cl [2-chlorobenzoic acid]
[1]; 320.16 K
  vapor or sublimation pressure: 0.000103 ± 5e-06 kPa and 0.000102 ± 5e-06 kPa and 0.0001 ± 5e-06 kPa
[1]; 322.16 K
  vapor or sublimation pressure: 0.000127 ± 6e-06 kPa and 0.000126 ± 6e-06 kPa
[1]; 324.14 K
  vapor or sublimation pressure: 0.000166 ± 8e-06 kPa and 0.000164 ± 8e-06 kPa and 0.000163 ± 8e-06 kPa
[1]; 326.14 K
  vapor or sublimation pressure: 0.000205 ± 1e-05 kPa and 0.000204 ± 1e-05 kPa and 0.000206 ± 1e-05 kPa
[1]; 329.15 K
  vapor or sublimation pressure: 0.0003 ± 1.5e-05 kPa and 0.000294 ± 1.5e-05 kPa
[1]; 332.13 K
  vapor or sublimation pressure: 0.000417 ± 2.1e-05 kPa and 0.000414 ± 2.1e-05 kPa and 0.00041 ± 2.1e-05 kPa
[1]; 335.18 K
  vapor or sublimation pressure: 0.000584 ± 2.9e-05 kPa and 0.000582 ± 2.9e-05 kPa and 0.000576 ± 2.9e-05 kPa
[1]; 337.14 K
  vapor or sublimation pressure: 0.000734 ± 3.7e-05 kPa and 0.000721 ± 3.6e-05 kPa
[1]; 339.15 K
  vapor or sublimation pressure: 0.000934 ± 4.7e-05 kPa and 0.000935 ± 4.7e-05 kPa and 0.00092 ± 4.6e-05 kPa
[1]
  Normal melting temperature: 140.80 ± 0.39 °C
[2]
  Molar enthalpy of transition or fusion: 6.03 ± 0.136 kcal/mol

## O=C(O)c1cccc(Br)c1 [3-bromobenzoic acid]
[1]; 327.67 K
  vapor or sublimation pressure: 0.000111 ± 6e-06 kPa and 0.000113 ± 6e-06 kPa
[1]; 330.66 K
  vapor or sublimation pressure: 0.00016 ± 8e-06 kPa and 0.000152 ± 8e-06 kPa
[1]; 332.64 K
  vapor or sublimation pressure: 0.0002 ± 1e-05 kPa and 0.000196 ± 1e-05 kPa
[1]; 335.16 K
  vapor or sublimation pressure: 0.00025 ± 1.3e-05 kPa and 0.000253 ± 1.3e-05 kPa and 0.000261 ± 1.3e-05 kPa
[1]; 337.71 K
  vapor or sublimation pressure: 0.000354 ± 1.8e-05 kPa and 0.000351 ± 1.8e-05 kPa and 0.00035 ± 1.8e-05 kPa
[1]; 340.14 K
  vapor or sublimation pressure: 0.000464 ± 2.3e-05 kPa and 0.000451 ± 2.3e-05 kPa and 0.00045 ± 2.3e-05 kPa
[1]; 342.65 K
  vapor or sublimation pressure: 0.000596 ± 3e-05 kPa and 0.00059 ± 3e-05 kPa and 0.000584 ± 2.9e-05 kPa
[1]; 345.15 K
  vapor or sublimation pressure: 0.000783 ± 3.9e-05 kPa and 0.00077 ± 3.9e-05 kPa and 0.000767 ± 3.8e-05 kPa
[1]; 347.6 K
  vapor or sublimation pressure: 0.000995 ± 5e-05 kPa and 0.001004 ± 0.0001 kPa and 0.000982 ± 4.9e-05 kPa
[1]
  Normal melting temperature: 156.93 ± 0.45 °C
[2]
  Molar enthalpy of transition or fusion: 5.95 ± 0.134 kcal/mol

## O=C(O)c1cccc(Cl)c1 [3-chlorobenzoic acid]
[1]; 320.13 K
  vapor or sublimation pressure: 0.000109 ± 5e-06 kPa and 0.000106 ± 5e-06 kPa and 0.000104 ± 5e-06 kPa
[1]; 321.18 K
  vapor or sublimation pressure: 0.000122 ± 6e-06 kPa and 0.00012 ± 6e-06 kPa and 0.000117 ± 6e-06 kPa
[1]; 324.17 K
  vapor or sublimation pressure: 0.000173 ± 9e-06 kPa and 0.000171 ± 9e-06 kPa and 0.00017 ± 9e-06 kPa
[1]; 327.14 K
  vapor or sublimation pressure: 0.000241 ± 1.2e-05 kPa and 0.000236 ± 1.2e-05 kPa and 0.000245 ± 1.2e-05 kPa
[1]; 330.15 K
  vapor or sublimation pressure: 0.000335 ± 1.7e-05 kPa and 0.000327 ± 1.6e-05 kPa and 0.000324 ± 1.6e-05 kPa
[1]; 333.17 K
  vapor or sublimation pressure: 0.000474 ± 2.4e-05 kPa and 0.000472 ± 2.4e-05 kPa and 0.00047 ± 2.4e-05 kPa
[1]; 336.13 K
  vapor or sublimation pressure: 0.000655 ± 3.3e-05 kPa and 0.000644 ± 3.2e-05 kPa
[1]; 339.01 K
  vapor or sublimation pressure: 0.000896 ± 4.5e-05 kPa and 0.000873 ± 4.4e-05 kPa and 0.000877 ± 4.4e-05 kPa
[1]; 340.13 K
  vapor or sublimation pressure: 0.001012 ± 0.0001 kPa and 0.000984 ± 4.9e-05 kPa and 0.00099 ± 5e-05 kPa
[1]
  Normal melting temperature: 154.72 ± 0.55 °C
[2]
  Molar enthalpy of transition or fusion: 5.66 ± 0.134 kcal/mol

## O=C(O)c1ccc(Br)cc1 [4-bromobenzoic acid]
[1]; 348.67 K
  vapor or sublimation pressure: 0.000155 ± 8e-06 kPa and 0.000153 ± 8e-06 kPa and 0.000152 ± 8e-06 kPa
[1]; 350.14 K
  vapor or sublimation pressure: 0.000176 ± 9e-06 kPa and 0.00018 ± 9e-06 kPa and 0.000175 ± 9e-06 kPa
[1]; 351.67 K
  vapor or sublimation pressure: 0.000202 ± 1e-05 kPa and 0.000205 ± 1e-05 kPa
[1]; 353.14 K
  vapor or sublimation pressure: 0.000245 ± 1.2e-05 kPa and 0.00024 ± 1.2e-05 kPa
[1]; 354.65 K
  vapor or sublimation pressure: 0.000276 ± 1.4e-05 kPa and 0.000278 ± 1.4e-05 kPa
[1]; 356.17 K
  vapor or sublimation pressure: 0.000331 ± 1.7e-05 kPa and 0.000324 ± 1.6e-05 kPa and 0.000326 ± 1.6e-05 kPa
[1]; 357.67 K
  vapor or sublimation pressure: 0.000384 ± 1.9e-05 kPa and 0.000389 ± 1.9e-05 kPa and 0.000376 ± 1.9e-05 kPa
[1]; 359.24 K
  vapor or sublimation pressure: 0.000448 ± 2.2e-05 kPa and 0.000429 ± 2.1e-05 kPa and 0.000447 ± 2.2e-05 kPa
[1]; 360.65 K
  vapor or sublimation pressure: 0.000517 ± 2.6e-05 kPa and 0.000495 ± 2.5e-05 kPa and 0.000512 ± 2.6e-05 kPa
[1]; 362.22 K
  vapor or sublimation pressure: 0.000609 ± 3e-05 kPa and 0.000617 ± 3.1e-05 kPa and 0.000611 ± 3.1e-05 kPa
[1]; 363.63 K
  vapor or sublimation pressure: 0.000692 ± 3.5e-05 kPa and 0.000703 ± 3.5e-05 kPa and 0.000683 ± 3.4e-05 kPa
[1]; 365.23 K
  vapor or sublimation pressure: 0.00082 ± 4.1e-05 kPa and 0.000809 ± 4e-05 kPa
[1]; 366.65 K
  vapor or sublimation pressure: 0.000932 ± 4.7e-05 kPa and 0.000909 ± 4.5e-05 kPa
[1]
  Normal melting temperature: 253.19 ± 0.84 °C
[2]
  Molar enthalpy of transition or fusion: 7.38 ± 0.163 kcal/mol
